Key:
[1] = biological target: T1, Renin (Homo sapiens) (UniProt P00797); test: Inhibition of human renal renin at the concentration of 10e-5 M.
T1 sequence (whole entry): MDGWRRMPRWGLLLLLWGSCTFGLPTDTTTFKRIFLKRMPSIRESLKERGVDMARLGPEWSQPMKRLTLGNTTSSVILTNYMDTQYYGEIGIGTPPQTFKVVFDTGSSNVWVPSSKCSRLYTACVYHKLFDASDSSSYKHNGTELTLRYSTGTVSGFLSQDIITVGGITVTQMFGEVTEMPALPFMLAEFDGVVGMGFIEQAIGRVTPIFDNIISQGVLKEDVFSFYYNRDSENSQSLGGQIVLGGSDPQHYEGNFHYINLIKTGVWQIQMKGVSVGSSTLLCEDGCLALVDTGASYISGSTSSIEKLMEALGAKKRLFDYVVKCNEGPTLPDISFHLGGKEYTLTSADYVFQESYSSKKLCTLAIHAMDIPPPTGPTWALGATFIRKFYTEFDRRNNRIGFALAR

[2] = biological target: Pepsin A (Sus scrofa) (UniProt P00791); test: Inhibition of porcine pepsin; parameters: concentration or dose not given beside the values; details: concentration not given here
Chain of Pepsin A (Sus scrofa) (P00791 60-385 limits assumed): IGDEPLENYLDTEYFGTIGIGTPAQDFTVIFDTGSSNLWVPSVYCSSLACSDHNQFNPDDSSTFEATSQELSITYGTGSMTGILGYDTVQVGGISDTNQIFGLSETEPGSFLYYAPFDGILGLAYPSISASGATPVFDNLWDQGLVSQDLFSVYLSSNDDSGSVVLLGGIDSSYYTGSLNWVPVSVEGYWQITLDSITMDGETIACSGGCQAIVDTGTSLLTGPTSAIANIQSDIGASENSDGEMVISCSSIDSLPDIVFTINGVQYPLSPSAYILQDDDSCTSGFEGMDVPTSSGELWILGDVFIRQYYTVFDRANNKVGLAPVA

[3] = biological target: T2, Renin (Homo sapiens, UniProt P00797); test: Inhibition of human renal renin at the pH optimum 6.0.
T2 sequence (P00797 whole entry): T1 sequence (whole entry)

[4] = biological target: T1, Renin (Homo sapiens); test: The compound was tested for inhibition of human renal renin at the concentration of 10e-7 M
[5] = biological target: T2, Renin; test: The compound was tested for inhibition of human renal renin at the pH optimum 7.4
[6] = biological target: T1, Renin (Homo sapiens); test: The compound was tested for inhibition of human renal renin at the concentration of 10e-6 M

Row | SMILES | inhibition [1] | IC50 [3] | also measured
1 | CC(C)C[C@@H](NC(=O)[C@H](Cc1ccc(O)cc1)NC(=O)[C@H](Cc1ccccc1)NC(=O)OC(C)(C)C)[C@H](O)CSc1ccccc1 | 21% | – | inhibition [2]: 11%
2 | CC(C)C[C@@H](NC(=O)[C@H](Cc1c[nH]cn1)NC(=O)[C@H](Cc1cccc2ccccc12)NC(=O)OC(C)(C)C)[C@H](O)CSC1CCCCC1 | – | 13 nM | inhibition [4]: 85%
3 | CC(C)C[C@@H](NC(=O)[C@H](C)NC(=O)[C@H](Cc1ccccc1)NC(=O)OC(C)(C)C)[C@H](O)C[S+]([O-])C1CCCCC1 (stereo not given in full) | 46% | – | –
4 | CC(C)C[C@@H](NC(=O)[C@H](C)NC(=O)[C@H](Cc1ccccc1)NC(=O)OC(C)(C)C)[C@H](O)CSCCCc1ccccc1 | 88% | 1000 nM | inhibition [2]: 74%
5 | CC(C)CCS(=O)(=O)C[C@@H](O)[C@@H](CC(C)C)NC(=O)[C@H](Cc1c[nH]cn1)NC(=O)[C@H](Cc1ccccc1)NC(=O)OC(C)(C)C | 94% | – | IC50 [5]: 500 nM
6 | CC(C)C[C@@H](NC(=O)[C@H](Cc1c[nH]cn1)NC(=O)[C@H](Cc1ccccc1)NC(=O)OC(C)(C)C)[C@H](O)CNC(C)C | 35% | – | –
7 | CC(C)C[C@@H](NC(=O)[C@H](Cc1ccccc1)NC(=O)[C@H](Cc1ccccc1)NC(=O)OC(C)(C)C)[C@H](O)CSc1ccccc1 | 48% | – | inhibition [2]: 11%
8 | CC(C)C[C@@H](NC(=O)[C@H](Cc1c[nH]cn1)NC(=O)[C@H](Cc1ccccc1)NC(=O)OC(C)(C)C)[C@H](O)CS(=O)(=O)C(C)C | 99% | 200 nM | inhibition [2]: 3%
9 | CC(C)C[C@@H](NC(=O)[C@H](Cc1c[nH]cn1)NC(=O)[C@H](Cc1ccccc1)NC(=O)OC(C)(C)C)[C@H](O)CSc1ccccc1 | 96% | 960 nM | inhibition [2]: 0%
10 | CC(C)C[C@H](NC(=O)[C@H](Cc1c[nH]cn1)NC(=O)[C@H](Cc1ccccc1)NC(=O)OC(C)(C)C)[C@@H](O)CSC1CCCCC1 (stereo in doubt; 55) [listing 1 of 2 here] | – | – | inhibition [4]: 78%
11 | CC(C)C[C@@H](NC(=O)[C@H](Cc1c[nH]cn1)NC(=O)[C@H](Cc1ccccc1)NC(=O)OC(C)(C)C)[C@H](O)COC(C)C | 85% | 1500 nM | inhibition [2]: 0%
12 | CC(C)C[C@@H](NC(=O)[C@H](Cc1c[nH]cn1)NC(=O)[C@H](Cc1ccccc1)NC(=O)OC(C)(C)C)[C@H](O)CSC(C)C | – | 81 nM | inhibition [6]: 92%; inhibition [4]: 54%
13 | CC(C)C[C@@H](NC(=O)[C@H](C)NC(=O)[C@H](Cc1ccccc1)NC(=O)OC(C)(C)C)[C@H](O)CSC1CCCC1 | 94% | 1000 nM | –
14 | CC(C)CCC[C@@H](O)[C@@H](CC(C)C)NC(=O)[C@H](C)NC(=O)[C@H](Cc1ccccc1)NC(=O)OC(C)(C)C | 71% | 3500 nM | –
15 | CC(C)CC[C@@H](O)[C@@H](CC(C)C)NC(=O)[C@H](Cc1c[nH]cn1)NC(=O)[C@H](Cc1ccccc1)NC(=O)OC(C)(C)C | 89% | 1500 nM | –
16 | CC(C)CCC[C@@H](O)[C@@H](CC(C)C)NC(=O)[C@H](Cc1c[nH]cn1)NC(=O)[C@H](Cc1ccccc1)NC(=O)OC(C)(C)C | 97% | 600 nM | –
17 | CC(C)C[C@@H](NC(=O)[C@H](Cc1c[nH]cn1)NC(=O)[C@H](Cc1ccccc1)NC(=O)OC(C)(C)C)[C@H](O)CS(=O)(=O)C1CCCCC1 | – | 90 nM | inhibition [6]: 92%; inhibition [4]: 51%
18 | CC(C)C[C@H](NC(=O)[C@H](Cc1c[nH]cn1)NC(=O)[C@H](Cc1ccccc1)NC(=O)OC(C)(C)C)[C@@H](O)CSC1CCCCC1 (stereo in doubt; 56) | – | 520 nM | –
19 | CC(C)COC[C@@H](O)[C@@H](CC(C)C)NC(=O)[C@H](C)NC(=O)[C@H](Cc1ccccc1)NC(=O)OC(C)(C)C | 59% | 7000 nM | inhibition [2]: 68%
20 | CC(C)C[C@@H](NC(=O)[C@H](C)NC(=O)[C@H](Cc1ccccc1)NC(=O)OC(C)(C)C)[C@H](O)C[S+]([O-])c1ccccc1 (stereo not given in full) | 12% | – | –
21 | CC(C)C[C@@H](NC(=O)[C@H](Cc1c[nH]cn1)NC(=O)[C@H](Cc1ccccc1)NC(=O)OC(C)(C)C)[C@H](O)CS(=O)(=O)CC(C)C | 98% | – | IC50 [5]: 350 nM
22 | CC(C)C[C@@H](NC(=O)[C@H](C)NC(=O)[C@H](Cc1ccccc1)NC(=O)OC(C)(C)C)[C@H](O)CSC1CCCCC1 | 94% | 800 nM | inhibition [2]: 100%
23 | CC(C)C[C@@H](NC(=O)[C@H](C)NC(=O)[C@H](Cc1ccccc1)NC(=O)OC(C)(C)C)[C@H](O)CS(=O)(=O)c1ccccc1 | 25% | – | –
24 | CC(C)CC[C@@H](O)[C@@H](CC(C)C)NC(=O)[C@H](Cc1c[nH]cn1)NC(=O)[C@H](Cc1ccc2ccccc2c1)NC(=O)OC(C)(C)C | – | 600 nM | inhibition [6]: 87%
25 | CC(C)COC[C@@H](O)[C@@H](CC(C)C)NC(=O)[C@H](Cc1c[nH]cn1)NC(=O)[C@H](Cc1ccccc1)NC(=O)OC(C)(C)C | 94% | 650 nM | inhibition [2]: 0%
26 | CC(C)C[C@H](NC(=O)[C@H](Cc1c[nH]cn1)NC(=O)[C@H](Cc1ccccc1)NC(=O)OC(C)(C)C)[C@@H](O)CSC1CCCCC1 (stereo in doubt; 55) [listing 2 of 2 here] | – | 35 nM | –
27 | CC(C)C[C@@H](NC(=O)[C@H](C)NC(=O)[C@H](Cc1ccccc1)NC(=O)OC(C)(C)C)[C@H](O)CS(=O)(=O)C1CCCCC1 | 76% | 2000 nM | –

More lines, main results first:

Row | inhibition [1] | IC50 [3] | SMILES | also measured
28 | 57% | 10000 nM | CC(C)C[C@@H](NC(=O)[C@H](C)NC(=O)[C@H](Cc1ccccc1)NC(=O)OC(C)(C)C)[C@H](O)CSCc1ccccc1 | inhibition [2]: 96%
29 | 48% | – | CC(C)C[C@@H](NC(=O)[C@H](C)NC(=O)[C@H](Cc1ccccc1)NC(=O)OC(C)(C)C)[C@H](O)CSCc1cccc2ccccc12 | –
30 | 88% | 3000 nM | CC(C)C[C@@H](NC(=O)[C@H](C)NC(=O)[C@H](Cc1ccccc1)NC(=O)OC(C)(C)C)[C@H](O)CSC(C)(C)C | –
31 | 90% | 700 nM | CC(C)C[C@H](NC(=O)[C@H](C)NC(=O)[C@H](Cc1ccccc1)NC(=O)OC(C)(C)C)[C@@H](O)CSC(C)C | inhibition [2]: 73%
32 | 93% | 1500 nM | CC(C)CCSC[C@@H](O)[C@@H](CC(C)C)NC(=O)[C@H](C)NC(=O)[C@H](Cc1ccccc1)NC(=O)OC(C)(C)C | –
33 | 5% | – | CC(C)C[C@@H](NC(=O)[C@H](C)NC(=O)[C@H](Cc1ccccc1)NC(=O)OC(C)(C)C)[C@H](O)CNC(C)C | –
34 | 56% | 8000 nM | CC(C)C[C@@H](NC(=O)[C@H](C)NC(=O)[C@H](Cc1ccccc1)NC(=O)OC(C)(C)C)[C@H](O)CSc1ccccc1 | –
35 | 15% | – | CC(C)C[C@@H](NC(=O)[C@H](C)NC(=O)[C@H](Cc1ccccc1)NC(=O)OC(C)(C)C)[C@H](O)CSc1ccc(C(C)(C)C)cc1 | –
36 | 73% | 4500 nM | CC(C)C[C@@H](NC(=O)[C@H](C)NC(=O)[C@H](Cc1ccccc1)NC(=O)OC(C)(C)C)[C@H](O)CSCCc1ccccc1 | –
37 | 85% | 2000 nM | CC(C)CC[C@H](O)[C@H](CC(C)C)NC(=O)[C@H](C)NC(=O)[C@H](Cc1ccccc1)NC(=O)OC(C)(C)C | –
38 | 7% | – | CC(C)C[C@@H](NC(=O)[C@H](C)NC(=O)[C@H](Cc1ccccc1)NC(=O)OC(C)(C)C)[C@H](O)CSc1cccc2ccccc12 | –
39 | 30% | – | CC(C)C[C@@H](NC(=O)[C@H](C)NC(=O)[C@H](Cc1ccccc1)NC(=O)OC(C)(C)C)[C@H](O)CNc1ccccc1 | –
40 | 89% | 1500 nM | CC(C)CSC[C@@H](O)[C@@H](CC(C)C)NC(=O)[C@H](C)NC(=O)[C@H](Cc1ccccc1)NC(=O)OC(C)(C)C | –
41 | 21% | – | CC(C)C[C@@H](NC(=O)[C@H](C)NC(=O)[C@H](Cc1ccccc1)NC(=O)OC(C)(C)C)[C@H](O)CSc1ccc(Br)cc1 | –
42 | 23% | – | CC(C)C[C@@H](NC(=O)[C@H](C)NC(=O)[C@H](Cc1ccccc1)NC(=O)OC(C)(C)C)[C@H](O)CSc1ccc2ccccc2c1 | –
43 | 54% | 7000 nM | CC(C)C[C@@H](NC(=O)[C@H](C)NC(=O)[C@H](Cc1ccccc1)NC(=O)OC(C)(C)C)[C@H](O)COC(C)C | –
44 | 48% | – | CC(C)C[C@@H](NC(=O)[C@H](C)NC(=O)[C@H](Cc1ccccc1)NC(=O)OC(C)(C)C)[C@H](O)COc1ccccc1 | inhibition [2]: 27%
